Measured values taken from US20230057621A1 (priority 2019, published 2023).

Experiments:
Format in all cases: cell-based
pseudorabies virus [1] = system: pseudorabies virus
EB virus = system: EB virus
pseudorabies virus [2] = system: pseudorabies virus; remark: listed apart in the source

In the case of `CC(C)(C)C(=O)OCOP(=O)(COCCn1cnc2c(N)ncnc21)OCOC(=O)C(C)(C)C` [adefovir dipivoxil], the “EC50 for the inhibition against pseudorabies virus proliferation” value (pseudorabies virus [1]) is reported as “reaches nanomolar level”, the “inhibitory effect on pseudorabies virus replication and proliferation” value (pseudorabies virus [1]) is reported as “can significantly inhibit the replication and proliferation of pseudorabies virus” and the “inhibitory activity against EB virus replication” value (EB virus) is reported as “no inhibitory activity against EB virus”. The “inhibition of the release of pseudorabies virus from cells” value (pseudorabies virus [2]) was “can significantly inhibit the release of pseudorabies virus from cells”.
